Tests used:
claudin5 = experiment: Claudin5 protein expression in BVECs of cerebral cortex (IHC, MATLAB), DMHC pigs; assay type: in vivo, pig; details: Darapladib 10 mg/kg/d orally, 24 weeks
Experimental: Briefly, after induction of diabetes by a single injection of Streptozotocin, animals were fed a high cholesterol diet. After a month of DMHC induction and acclimation, animals were randomly segregated to untreated DMHC and Darapladib-treated DMHC groups. Darapladib-treated pigs received 10 mg/kg/d of Darapladib orally. Three of the pigs were spared from DMHC induction and served as age-matched, non-DMHC normal controls. Twenty four weeks after acclimation, animals were euthanized and their brains and eyes were immediately removed. Brains were divided anteroposteriorly into anterior, middle and posterior regions. For each of these brain regions, 2-3 tissue blocks were generated for routine tissue fixation (10% formalin) or freezing and histological processing. The anterior cortical region comprised of anterior 2⁄3 of frontal lobe and anterior 1⁄3 of temporal lobe. The middle cortical region contained mid 1⁄3 of temporal lobe and anterior 1⁄2 of the parietal lobe. The posterior cortex included the posterior 1⁄2 of the parietal lobe, posterior 1⁄3 of the temporal lobe and the occipital lobe. Eyes were dissected longitudinally to sever the retina at the optic nerve. The sections were fixed in 10% formalin and embedded as flattened disc in paraffin. The tissue samples were processed using routine histology techniques. Standard Hematoxylin & Eosin (H&E) staining (FIG. 1) was carried out in retinal sections. Localization of claudin5, occludin and IgG in the cerebral cortex and retina was carried out using immunohistochemistry (IHC) as described previously. Briefly, tissue sections were deparaffinized in xylene and rehydrated in decreasing concentrations of ethanol. The antigenicity of these tissues was enhanced by microwaving in citrate buffer. Sections were treated with 3% H2O2 for 10 minutes to quench endogenous peroxidase activity. Tissues were subsequently treated with their appropriate blocking serum for 30 minutes at room temperature and then probed with anti-claudin5 (Invitrogen, Cat #35-2500, dilution 1:150) or anti-occludin (Invitrogen, Cat #71-1500, dilution 1:800) antibodies for 1 hour at room temperature. Extravasated IgG was detected using biotinylated anti-swine IgG antibody (Vector laboratories, Inc., Catalogue # BA-9020; dilution 1:100). The use of occludin antibody required pre-treatment with a protease (Sigma, Catalogue P-5147; 1.5 mg/ml) for 10 minutes at 37° C. At the end of primary antibody step, all tissue sections were thoroughly rinsed in PBS and then probed with biotin-labeled secondary antibodies [anti-mouse IgG (Vector laboratories, Catalogue # PK-6102; Dilution 1:100) for claudin5 and anti-rabbit IgG (Vector laboratories, Inc., Catalogue # PK-6101; Dilution 1:100) for occludin] for 30 minutes at room temperature. Sections were then rinsed in PBS, treated with avidin-peroxidase complex (Vectastain ABC Elite kit, Vector Laboratories, Inc., Catalogue PK-6100), washed with PBS and visualized with 3-3-diaminobenzidine-4-HCL (DAB)/H2O2 (Imm-PACT-DAB) (Dako, Code K3468). […] Slides were examined and photographed with a Nikon FXA microscope, and digital images were recorded using a Nikon DXM1200F digital camera and analyzed using MATLAB (MathWorks, Mass., USA) and NIS-elements software (Nikon, Melville, N.Y.). […] Claudin5 and occludin protein expression in pig cerebral cortex was evaluated semi-quantitatively using IHC by taking images at five random locations as described previously. Images were analyzed using MATLAB (MathWorks, Mass., USA). […]

occludin = experiment: Occludin gene expression in cerebral cortex (RT-PCR, beta-actin reference), DMHC pigs; assay type: in vivo, pig; details: Darapladib 10 mg/kg/d orally, 24 weeks, rank among treatment groups, FIG. 8B
Experimental: Briefly, after induction of diabetes by a single injection of Streptozotocin, animals were fed a high cholesterol diet. After a month of DMHC induction and acclimation, animals were randomly segregated to untreated DMHC and Darapladib-treated DMHC groups. Darapladib-treated pigs received 10 mg/kg/d of Darapladib orally. Three of the pigs were spared from DMHC induction and served as age-matched, non-DMHC normal controls. Twenty four weeks after acclimation, animals were euthanized and their brains and eyes were immediately removed. Brains were divided anteroposteriorly into anterior, middle and posterior regions. […]
Relative quantification of claudin5 and occludin gene expression was carried out using the reporter dye SYBR green and Applied Biosystems 7500 real time polymerase chain reaction (RT-PCR) system. […] Relative quantification of the claudin5 and occludin gene expression was conducted using beta actin (β-actin), a house keeping gene, as a standard. The amplification profiles of all samples were analyzed using Applied Biosystems software. […]
Changes in claudin 5 and occludin gene expression in response to DMHC and Darapladib treatment were assessed in the middle brain region only of the pig cerebral cortex by real-time polymerase chain reaction (RT-PCR) using beta-actin as a reference (FIG. 8).

With CCN(CC)CCN(Cc1ccc(-c2ccc(C(F)(F)F)cc2)cc1)C(=O)Cn1c(SCc2ccc(F)cc2)nc(=O)c2c1CCC2 [Darapladib] the “claudin5 protein expression, anterior cortex, versus DMHC group” value (claudin5; FIG. 7A) was “reduction in claudin5 expression compared to the DMHC group, but this difference did not reach statistical significance”, the “claudin5 protein expression, anterior cortex, versus controls” value (claudin5; FIG. 7A) was “significantly higher than in controls” and the “claudin5 protein expression, middle cortex, versus DMHC only” value (claudin5; FIG. 7B) was “approached statistical significance”. For the same compound, the “claudin5 protein expression, middle cortex, versus controls” value (claudin5; FIG. 7B) was “reduced expression of claudin5 to levels not significantly different from controls”, the “claudin5 protein expression, posterior cortex” value (claudin5; rank among treatment groups, FIG. 7C) was “highest expression of claudin5” and the “occludin gene expression, middle brain region of cerebral cortex” value (occludin) was “highest claudin5 and occludin levels”.

Source: patent US20160166572A1, “BENEFICIAL EFFECTS OF Lp-PLA2 INHIBITORS IN TREATMENT OF DIABETIC RETINOPATHY AND AGE-RELATED MACULAR DEGENERATION” (Rowan University, priority 2014, published 2016)
